Each block holds one compound with its values, some of them ahead of it.
Key:
uterine contractions = assay: Uterine contractions after single dose versus placebo; assay type: in vivo, human
[1] = test system: spontaneous uterine contractions; conditions: same vehicle, same model organism; cited from earlier work
[2] = plasma concentration of compound (II) in clinical trial of Example 4; assay type: in vivo, human; conditions: oral administration of either the 900 mg or the 1,800 mg dose
Protocol: (§1) Particularly, subjects were pre-treated with estradiol valerate at a dosage of 2 mg administered 3 times per day (TID) for 16 days. Administration of estradiol valerate was followed by vaginal progesterone at a dosage of 200 mg administered TID.

[3] = dispersible tablet formulations; cited from earlier work
[4] = test system: endometrial RNA transcript expression (DPP4, CNTNAP3, CNTN4, CXCL12, TNXB, CTSE, OLFM4, KRT5, KRT6A, IDO2); assay: RNA-Seq assay of endometrial tissue mRNA expression before and after administration; assay type: in vivo, human
Protocol: Using an RNA-Seq assay, each subject's mRNA expression level of a variety of genes, including DPP4, CNTNAP3, CNTN4, CXCL12, TNXB, CTSE, OLFM4, KRT5, KRT6A, and IDO2, was then assessed to determine whether the expression of each gene increased, decreased, or underwent no significant change due to administration of the compound or placebo.

endometrial perfusion = assay: Endometrial perfusion parameters (VI, FI, VFI) after single dose; assay type: in vivo, human; conditions: for increase in median endometrial VFI: between pre-dose and 24-hour post-dose
CYP3A4 = CYP3A4 (Homo sapiens, UniProt P08684); assay: metabolism by CYP3A4 isoform; assay type: in vitro ADME
Chain of CYP3A4 (P08684 whole entry, canonical isoform): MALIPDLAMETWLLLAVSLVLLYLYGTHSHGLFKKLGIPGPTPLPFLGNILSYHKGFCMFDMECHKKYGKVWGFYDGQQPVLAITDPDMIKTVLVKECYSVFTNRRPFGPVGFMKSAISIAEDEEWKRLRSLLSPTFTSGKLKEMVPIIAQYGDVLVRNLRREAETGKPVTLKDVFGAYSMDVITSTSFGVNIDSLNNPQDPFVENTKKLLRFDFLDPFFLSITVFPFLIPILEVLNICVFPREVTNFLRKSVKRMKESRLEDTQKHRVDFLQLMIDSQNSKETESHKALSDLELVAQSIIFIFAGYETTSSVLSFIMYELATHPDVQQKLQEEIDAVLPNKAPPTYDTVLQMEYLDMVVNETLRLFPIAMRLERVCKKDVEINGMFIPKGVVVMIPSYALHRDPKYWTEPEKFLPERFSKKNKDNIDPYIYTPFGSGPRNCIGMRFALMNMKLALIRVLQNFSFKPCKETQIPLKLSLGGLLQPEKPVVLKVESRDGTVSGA
Protocol: (§2) At five time points over the course of a 45 minute experiment, the compounds were analyzed by LC-MS/MS. The percentage of each compound remaining at each time point, along with the metabolic half-lives of each compound in the presence of each cytochrome P450 isoform, are indicated in Tables 10-12, below.

[5] = test system: healthy female volunteers; assay: uterine contractions and endometrial blood flow in clinical trial of Example 4; assay type: in vivo, human; conditions: single oral dose of 900 mg or 1,800 mg
Protocol: as §1
These assessments included measurements of uterine contractions by ultrasound and uterine perfusion by a 3D-power Doppler technique.
Mean and median changes in uterine contraction frequency and endometrial vascularity indices (particularly, endometrial flow index (FI), vascularity index (VI), and vascularity flow index (VFI)) were calculated. […] Differences in endometrial mRNA expression were identified and assessed for statistical significance.

[6] = crystal form with XRPD peaks of Table 1; cited from earlier work
CYP2C19 = CYP2C19 (Homo sapiens, UniProt P33261); assay: metabolism by CYP2C19 isoform; assay type: in vitro ADME
Chain of CYP2C19 (P33261 whole entry, canonical isoform): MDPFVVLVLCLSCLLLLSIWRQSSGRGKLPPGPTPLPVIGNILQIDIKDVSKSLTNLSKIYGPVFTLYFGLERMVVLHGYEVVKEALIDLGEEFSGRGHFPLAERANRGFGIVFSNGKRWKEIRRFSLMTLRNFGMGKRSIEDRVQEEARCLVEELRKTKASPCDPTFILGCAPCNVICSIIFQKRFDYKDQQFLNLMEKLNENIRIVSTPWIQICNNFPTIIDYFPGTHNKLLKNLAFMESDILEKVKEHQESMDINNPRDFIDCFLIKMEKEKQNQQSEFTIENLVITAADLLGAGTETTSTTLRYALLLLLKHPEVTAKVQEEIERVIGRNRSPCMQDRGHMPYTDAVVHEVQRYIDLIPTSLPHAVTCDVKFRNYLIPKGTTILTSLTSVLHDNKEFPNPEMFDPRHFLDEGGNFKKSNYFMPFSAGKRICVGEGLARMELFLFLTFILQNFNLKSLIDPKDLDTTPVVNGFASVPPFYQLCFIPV
Protocol: as §2

CYP2D6 = CYP2D6 (Homo sapiens, UniProt P10635); assay: metabolism by CYP2D6 isoform; assay type: in vitro ADME
Chain of CYP2D6 (P10635 whole entry, canonical isoform): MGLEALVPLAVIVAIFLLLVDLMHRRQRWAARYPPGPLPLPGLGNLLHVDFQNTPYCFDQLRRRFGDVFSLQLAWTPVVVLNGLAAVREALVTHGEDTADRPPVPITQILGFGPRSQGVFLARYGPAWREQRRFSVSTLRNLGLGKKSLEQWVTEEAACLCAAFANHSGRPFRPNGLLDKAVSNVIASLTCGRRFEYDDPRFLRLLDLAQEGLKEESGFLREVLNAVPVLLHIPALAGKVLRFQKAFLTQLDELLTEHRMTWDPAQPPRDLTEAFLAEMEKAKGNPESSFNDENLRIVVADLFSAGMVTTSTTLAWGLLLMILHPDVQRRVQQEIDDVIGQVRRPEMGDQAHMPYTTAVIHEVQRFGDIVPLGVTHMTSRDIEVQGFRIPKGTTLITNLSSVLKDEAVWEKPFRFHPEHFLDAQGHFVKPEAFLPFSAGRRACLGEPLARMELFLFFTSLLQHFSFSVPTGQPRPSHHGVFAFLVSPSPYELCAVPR
Protocol: as §2

[7] = 1,800 mg dose, within 24 hours of administration

time to maximum concentration [2]: about 4 hours
SMILES: CO/N=C1/C[C@@H](CO)N(C(=O)c2ccc(-c3ccccc3C)cc2)C1 [Compound (II), (3Z,5S)-5-(hydroxymethyl)-1-[(2′-methyl-1,1′-biphenyl-4-yl)carbonyl]pyrrolidin-3-one O-methyloxime]
proportion of subjects showing less than one uterine contraction per minute versus placebo (uterine contractions; 900 mg dose, 24-hour time point only (p=0.0437)): significant difference
number of uterine contractions per minute versus placebo (uterine contractions; 900 mg dose, all time points (p>0.10)): no significant difference
proportion of subjects showing less than one uterine contraction per minute versus placebo (uterine contractions; 1,800 mg dose, 8-hour time point (p=0.0121)): significance was seen
number of uterine contractions per minute versus placebo (uterine contractions; 1,800 mg dose, from the 4-hour time point onwards (p=0.0923 at 4 h, p=0.0081 at 8 h)): contraction-reducing effects were observed
inhibitory activity with respect to uterine contraction, compared with (3E) diastereomer [1]: markedly higher than that of the substantially pure (3E) diastereomer
absorption kinetics upon administration to a subject [3]: rapid absorption kinetics
differences in mRNA expression in endometrial biopsy tissue compared to placebo ([4]; 900 mg dose): No differences
number of mRNAs downregulated [4, 7]: 5
number of mRNAs upregulated [4, 7]: 5
number of mRNAs significantly differentially expressed ([4]; 1,800 mg dose, within 24 hours of administration, adjusted p<0.05): 10
Endometrial Fl (endometrial perfusion; 900 mg dose, 24-hour time point (p=0.0502)): significant increases
increase in median endometrial VFI (endometrial perfusion; 900 mg dose): approximately 3 fold
endometrial VI versus placebo (endometrial perfusion; 1,800 mg dose, 8-hour time point (p=0.0714)): substantial increase
Endometrial Fl (endometrial perfusion; 1,800 mg dose, 24-hour time point (p=0.0625)): significant increases
increase in median endometrial VFI (endometrial perfusion; 1,800 mg dose): approximately 3 fold
preferential metabolism by cytochrome P450 isoform (CYP3A4): preferentially metabolized by the CYP3A4 isoform of cytochrome P450
effect on uterine contractions ([5]; FIG. 7): decrease uterine contractions
effect on endometrial blood flow (FI, VI, VFI) ([5]; FIGS. 8-10): marked and sustained increase in endometrial blood flow
stability of crystal form [6]: enhanced stability to aqueous media and physical stress

SMILES: CO/N=C1\C[C@@H](CO)N(C(=O)c2ccc(-c3ccccc3C)cc2)C1 [(3E) isomer, (3E,5S)-5-(hydroxymethyl)-1-[(2′-methyl-1,1′-biphenyl-4-yl)carbonyl]pyrrolidin-3-one O-methyloxime]
preferential metabolism by cytochrome P450 isoform (CYP2C19): preferentially metabolized by the CYP2D6 and CYP2C19 isoforms of cytochrome P450
preferential metabolism by cytochrome P450 isoform (CYP2D6): preferentially metabolized by the CYP2D6 and CYP2C19 isoforms of cytochrome P450
